# Results: US11547681B2, “N-acylethanolamide derivatives and uses thereof” (ELIEM THERAPEUTICS, INC., priority 2016, dated 2023)
# “Also recorded” adds a separate entry of the source.
# Legend:
# [1] = PEA levels in New Zealand White rabbit plasma samples after oral administration; format: in vivo; settings: individual rabbits; Group 3, 32 mg/kg/day; total PEA, ~5 h after morning dosing; listed as PEA-prodrug
# From the text: The present Example describes PEA levels observed in rabbit plasma samples after oral administration of compound(s) provided herein. Blood samples were taken approximately five hours after the morning dosing.
# Plasma samples from the current study were not treated to prolong the post-collection stability of the prodrug. Instead, all samples were allowed to stand, thawed and untreated, at room temperature for four hours prior to extraction and analysis. This strategy allowed for any remaining prodrug in the sample to convert to PEA. All reported concentrations are total PEA in the sample.
# Seventy-nine New Zealand White rabbit plasma samples were analyzed with a previously developed LC-MS/MS method for the detection of palmitoylethanolamide (PEA). A total of 79 plasma samples were received for analysis. All samples were received frozen in good condition. Samples were stored at −80° C. until analysis.
# An LC-MS/MS method for the determination of PEA in plasma was used to quantify samples in this study. See, e.g., Example 3. Study samples were extracted using the methods described in Examples 3-5.
# [2] = Simulated gastric fluid (SGF) stability, with and without pepsin; format: in vitro ADME; settings: pH 1.2, 2 μM
# Experimental: Studies were carried out in simulated gastric fluid (SGF). SGF was prepared by dissolving 2.0 g of NaCl and 3.2 g of purified pepsin (derived from porcine stomach mucosa) in 7 mL of 10 N HCl and sufficient water to make 1000 mL. The pH was adjusted to pH 1.2. Control experiments were also run without the addition of pepsin to the matrix. The test article was added into the SGF at 37° C. at a final concentration of 2 μM, and incubated in a shaking water bath at 37° C. Individual tubes were dosed for each time point (0, 15, 30, 60, and 120 minutes). At the appropriate time, 500 μL of ice-cold acetonitrile containing 0.1% formic acid and internal standard was added to a single tube. The starting time of each tube was staggered so that all timepoints finished simultaneously. The samples were then mixed and centrifuged. Calibration standards were prepared in matched matrix. […] Analytical conditions are outlined in Appendix 4-1.
# [3] = as above; format: in vitro ADME; settings: for Concentration of analyte I-9: dosed I-9 2 μM
# [4] = Microsome/S9 fraction control (reaction mixture without microsomal proteins); format: in vitro ADME; settings: for Concentration of analyte I-9: dosed I-9 2 μM
# Experimental: As a control for the liver microsome and intestinal S9 fraction studies, additional experiments were run in reaction mixture, with the exclusion of microsomal proteins. The reaction mixture was prepared as described below. […] Individual tubes were dosed for each time point (0, 10, 20, 30, and 60 minutes). At the appropriate time, 500 μL of ice-cold acetonitrile containing 0.1% formic acid and internal standard was added to a single tube. The starting time of each tube was staggered so that all timepoints finished simultaneously. […] Calibration standards were prepared in matched matrix. […] Analytical conditions are outlined in Appendix 4-1.
# [5] = Stability of PEA-prodrug in Sprague-Dawley rat plasma and acidified rat plasma (90 minutes, ice or RT); format: in vitro ADME; settings: 1 μg/mL
# Experimental: The stability of the PEA-prodrug I-9 was assessed in Sprague-Dawley rat plasma containing sodium heparin as the anticoagulant, and in acidified rat plasma containing citric acid and formic acid. The acidified plasma was prepared by collecting Sprague-Dawley rat […] over sodium heparin and adding 100 μL of 0.5 M citric acid per mL of blood. The blood was centrifuged to generate plasma, and then 100 μL of 10% formic acid was added per mL of plasma.
# PEA-prodrug was added to each matrix to a final concentration of 1 μg/mL. Triplicate aliquots (50 μL) were immediately collected and added to 150 μL of acetonitrile containing internal standard. The remaining plasma aliquots were split equally. One aliquot was allowed to stand at room temperature while the second was placed on ice. After ninety minutes, triplicate aliquots of each sample were collected and added to acetonitrile. The samples were centrifuged at 13000 rpm for ten minutes, and the resulting supernatant was analyzed using the developed LC-MS/MS method. The peak area response ratios (PARR) of the analyte and internal standard from the incubated samples were then compared to the initial sample to determine the percent PEA prodrug remaining.
# [6] = PEA levels in New Zealand White rabbit plasma samples after oral administration; format: in vivo; settings: individual rabbits, predose
# [7] = tested on: Sprague Dawley rats, carrageenan-induced thermal hyperalgesia; experiment: Carrageenan-induced inflammatory model, thermal hyperalgesia testing; format: in vivo, Sprague Dawley rat
# Experimental: Sixty male Sprague Dawley rats were used in this study. Baseline thermal hyperalgesia thresholds were determined on day -1; animals were divided into 6 groups based on baseline thermal hyperalgesia thresholds. On day 0, animals received an oral dose of vehicle or I-16. Approximately 30 minutes after dosing the animals received an intra-plantar injection of 2% carrageenan solution. The animals were assessed for thermal hyperalgesia approximately 4 and approximately 24 hours after carrageenan injection.
# Thermal hyperalgesia was assessed at baseline (prior to dosing with either vehicle or I-16), 4 hours, and 24 hours post-carrageenan injection.
# Mean±SEM ipsilateral paw withdrawal latencies following carrageenan injection in vehicle and I-16 treated animals during the pharmacological assessment period (day 0).
smiles,measurement,setting,value
CCCCCCCCCCCCCCCC(=O)NCCOC(=O)CCC(=O)OCC(O)CO (stereo not shown) [Compound I-9],"PEA concentration in plasma, Day 7",[1],BLOQ (below the limit of quantitation (2.5 ng/mL))
same,% Remaining of Initial (n = 1),"[2]; SGF w/o pepsin, 30 min",84%
same,% Remaining of Initial (n = 1),"[2]; SGF w/o pepsin, 120 min",71%
same,% Remaining of Initial (n = 1),"[2]; SGF w/pepsin, 0 min",100%
same,% Remaining of Initial (n = 1),"[2]; SGF w/pepsin, 15 min",95%
same,% Remaining of Initial (n = 1),"[2]; SGF w/pepsin, 60 min",92%
same,half-life at 2 μM,"[2]; simulated gastric fluid without pepsin, SGF w/o pepsin",> 2 h
same,% Remaining of Initial (n = 1),"[3]; SGF w/o pepsin, pH 1.2, 2 μM, 0 min",100%
same,% Remaining of Initial (n = 1),"[3]; SGF w/o pepsin, pH 1.2, 2 μM, 15 min",93%
same,% Remaining of Initial (n = 1),"[3]; SGF w/o pepsin, pH 1.2, 2 μM, 60 min",72%
same,% Remaining of Initial (n = 1),"[3]; SGF w/pepsin, pH 1.2, 2 μM, 30 min",80%
same,% Remaining of Initial (n = 1),"[3]; SGF w/pepsin, pH 1.2, 2 μM, 120 min",86%
same,Concentration of analyte I-9,"[3]; Matrix 'Human', 0 min",1520 nM
same,Concentration of analyte I-9,"[3]; Matrix 'Human', head 10 min",1450 nM
same,Concentration of analyte I-9,"[3]; Matrix 'Human', head 20 min",1210 nM
same,Concentration of analyte I-9,"[3]; Matrix 'Human', head 30 min",1400 nM
same,Concentration of analyte I-9,"[3]; Matrix 'Human', head 60 min",1310 nM
same,Concentration of analyte I-9,"[3]; Matrix 'Rat', 0 min",2070 nM
same,Concentration of analyte I-9,"[3]; Matrix 'Rat', head 10 min",1930 nM
same,Concentration of analyte I-9,"[3]; Matrix 'Rat', head 20 min",1740 nM
same,Concentration of analyte I-9,"[3]; Matrix 'Rat', head 30 min",1490 nM
same,Concentration of analyte I-9,"[3]; Matrix 'Rat', head 60 min",1480 nM
same,half-life at 2 μM,"[3]; pig, simulated gastric fluid with pepsin, SGF w/pepsin, pH 1.2, 2 μM",> 2 h
same,Concentration of analyte I-9,[4]; 0 min,2240 nM
same,Concentration of analyte I-9,[4]; 10 min,1470 nM
same,Concentration of analyte I-9,[4]; 20 min,1720 nM
same,Concentration of analyte I-9,[4]; 30 min,1500 nM
same,Concentration of analyte I-9,[4]; 60 min,1380 nM
same,half-life at 2 μM,"[4]; microsome/S9 reaction mixture without microsomal proteins, no microsomal proteins, pH 7.4, 2 μM",> 1 h
same,% Remaining of Initial (n = 1),"[4]; no microsomal proteins, pH 7.4, 2 μM, 0 min",100%
same,% Remaining of Initial (n = 1),"[4]; no microsomal proteins, pH 7.4, 2 μM, 10 min",66%
same,% Remaining of Initial (n = 1),"[4]; no microsomal proteins, pH 7.4, 2 μM, 20 min",77%
same,% Remaining of Initial (n = 1),"[4]; no microsomal proteins, pH 7.4, 2 μM, 30 min",67%
same,% Remaining of Initial (n = 1),"[4]; no microsomal proteins, pH 7.4, 2 μM, 60 min",62%
same,% Remaining,"[5]; acidified rat plasma (citric and formic acid), RT",96.0%
same,% Remaining,"[5]; acidified rat plasma (citric and formic acid), ice",107%
same,% Remaining,"[5]; rat plasma (sodium heparin), RT",0.203%
same,% Remaining,"[5]; rat plasma (sodium heparin), ice",73.4%
same,"PEA concentration in plasma, Day −3","[6]; Group 3, 32 mg/kg/day",BLOQ (below the limit of quantitation (2.5 ng/mL))
same,"PEA concentration in plasma, Day −5","[6]; Group 3, 32 mg/kg/day",BLOQ (below the limit of quantitation (2.5 ng/mL))
same,"PEA concentration in plasma, Day −3","[6]; Group 4, 160 mg/kg/day",BLOQ (below the limit of quantitation (2.5 ng/mL))
same,"PEA concentration in plasma, Day −5","[6]; Group 4, 160 mg/kg/day",BLOQ (below the limit of quantitation (2.5 ng/mL))
CCCCCCCCCCCCCCCC(=O)NCCOC(=O)CCC(=O)OC(COC(=O)CCC)COC(=O)CCC [Compound I-16],effect on thermal hyperalgesia induced by carrageenan,"[7]; I-16 10.25 mg/kg PO (5 mg/kg equivalents of PEA), any time point (4 and 24 hours)",did not significantly reduce; also recorded: no significant effect
same,effect on thermal hyperalgesia induced by carrageenan,"[7]; I-16 20.50 mg/kg PO, 4-hour time point, 20.5 mg/kg",significantly reduced thermal hyperalgesia; also recorded: significantly reducing thermal hyperalgesia
same,effect on thermal hyperalgesia induced by carrageenan,"[7]; I-16 20.50 mg/kg PO, 24-hour time point",did not significantly reduce thermal hyperalgesia
same,overall effect on thermal hyperalgesia,[7]; I-16 10.25 and 20.50 mg/kg PO,dose- and time-dependent reduction of thermal hyperalgesia
